Assay results as given in PubChem BioAssay (NCI).
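Cells were grown in 96-well plates and exposed to each compound for 48 hours at five concentrations; endpoints were interpolated linearly between bracketing concentrations, or set to the highest concentration if not reached. TGI denotes the concentration required for complete inhibition of growth.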

Legend:
Experiment in all cases: growth of human tumour cells (NCI), 48 h
U251 CNS = system: U251 CNS
MDA-MB-231 breast = system: MDA-MB-231 breast
MALME-3M melanoma = system: MALME-3M melanoma
MDA-MB-435 = system: MDA-MB-435
OVCAR-5 ovarian = system: OVCAR-5 ovarian
HS 578T breast = system: HS 578T breast
MOLT-4 leukemia = system: MOLT-4 leukemia
SNB-19 CNS = system: SNB-19 CNS
SF-539 CNS = system: SF-539 CNS
RPMI-8226 leukemia = system: RPMI-8226 leukemia
OVCAR-4 ovarian = system: OVCAR-4 ovarian
HL-60(TB) leukemia = system: HL-60(TB) leukemia

SMILES | TGI (U251 CNS) | TGI (MDA-MB-231 breast) | TGI (MALME-3M melanoma) | TGI (MDA-MB-435) | TGI (OVCAR-5 ovarian) | TGI (HS 578T breast) | TGI (MOLT-4 leukemia) | TGI (SNB-19 CNS) | TGI (SF-539 CNS) | TGI (RPMI-8226 leukemia) | TGI (OVCAR-4 ovarian) | TGI (HL-60(TB) leukemia)
CCN(CC)CCC(=O)c1ccc(Oc2ccccc2)cc1 | 32.3 µM | 36.7 µM | 30.1 µM | 40.2 µM | 46.4 µM | 52.6 µM | 48.4 µM | 38.2 µM | 34 µM | 39.2 µM | 76.9 µM | –
COC(=O)c1c(O)ccc2c1c1c(n2-c2ccc(OC)cc2)C(=O)c2ccccc2C1=O | 28.4 µM | 32.7 µM | 58.4 µM | > 100 µM | 75.4 µM | 46.4 µM | > 100 µM | 44.7 µM | 29.9 µM | > 100 µM | 38.2 µM | > 100 µM
O=C(CC(C(=O)c1cccs1)c1ccsc1)c1ccco1 (stereo not given) | 49.6 µM | – | – | 40.6 µM | > 100 µM | 47 µM | > 100 µM | – | 98.2 µM | > 100 µM | – | 41.3 µM
N#C/C(=C\c1ccc(Br)cc1)c1nc(-c2cc3ccccc3oc2=O)cs1 | 20.1 µM | 20.6 µM | 27.6 µM | > 50 µM | > 50 µM | 41.1 µM | > 50 µM | 24.1 µM | 40.4 µM | > 50 µM | > 50 µM | > 50 µM
CC1CC(C)(O)CC(C(O)CC2CC(=O)NC(=O)C2)C1=O (stereo not given) | 7.9 µM | 0.0651 µM | 6.44 µM | 2.1 µM | 9.21 µM | 0.316 µM | 0.229 µM | 2.24 µM | 0.226 µM | 0.564 µM | 0.87 µM | 1.1 µM
